From patent US7531517B2, “Inhibitors of cancer cell, T-cell and keratinocyte proliferation” (4SC AG, priority 2005, dated 2009) come the findings set out here.

pIC50: −log10 of the molar value.

The first assay addresses T1, human Proteasome (20S proteasome, chymotryptic activity) (Homo sapiens, UniProt P28074).
T1 construct: purchased Immatics, Tübingen
Put plainly: chymotryptic activity of the 20S proteasome (Suc-LLVT-AMC substrate, fluorescence). It is filed as biochemical. As to conditions: given in words only. As for the experimental part: The chymotryptic activity of the 20S proteasome (Immatics, Tüibingen) was determined using a Tecan Ultra plate reader and Suc-LLVT-AMC as substrate (Bachem). In the wells of a black 96 well polypropylene plate, 2 μl of the respective inhibitor dissolved in DMSO were mixed with 50 μl substrate solution (25 mM HEPES pH 7.5 at 20° C., 0.5 mM EDTA and Suc-LLVT-AMC (in the appropriate concentration) and the reaction was initiated by adding 150 μl proteasome solution (1.3 μg/ml 20S proteasome in 25 mM HEPES pH 7.5 at 20° C., 0.5 mM EDTA, 0.033% (w/v) SDS). Substrate hydrolysis was followed by fluorescence spectroscopy (excitation wavelength: 360 nm; emission wavelength: 465 nm) for 20 min at 30° C. and initial velocities were calculated and expressed as change in relative fluorescence units (RFU) per second.
Turning to `O=C1CN(N=CC(Cc2ccccc2)NC(=O)C(Cc2ccc3ccccc3c2)NC(=O)C(Cc2ccc(Br)cc2)NC(=O)OCc2ccccc2)C(=O)N1` (stereo not drawn) [Compound 5], the “human Proteasome IC50” value is listed as “nanomolar”. As for `O=C1CN(N=CC(Cc2ccccc2)NC(=O)C(Cc2ccc3ccccc3c2)NC(=O)C(Cc2ccc(Br)cc2)NC(=O)OCc2cccnc2)C(=O)N1` (stereo not drawn) [Compound 6], the “human Proteasome IC50” value is reported as “nanomolar”.

On to `CC(C)(C)OC(=O)NC(Cc1ccc(Br)cc1)C(=O)NC(Cc1ccc2ccccc2c1)C(=O)NC(/C=N/N1CC(=O)NC1=O)Cc1ccccc1` (stereo not drawn) [Compound 7], for which the “human Proteasome IC50” value is on record as “nanomolar”. In the case of `O=C1CN(/N=C/C(Cc2ccccc2)NC(=O)C(Cc2ccc3ccccc3c2)NC(=O)C(Cc2ccc(F)cc2)NC(=O)OCc2ccccc2)C(=O)N1` (stereo not drawn) [Compound 9], the “human Proteasome IC50” value is on record as “nanomolar”.

Staying with this assay, now noted: unit cell prints nM.
As for `O=C1CN(/N=C/C(Cc2ccccc2)NC(=O)C(Cc2c[nH]c3ccccc23)NC(=O)C(Cc2c[nH]c3ccccc23)NC(=O)CCCCC2SCC3NC(=O)NC32)C(=O)N1` (stereo not drawn) [Compound 2], the IC50 – broadly, the concentration at which inhibition is half-maximal – amounted to 76 nM.

The assay is the same for the next values; noted with them: unit nm [sic].
Take `O=C1CN(/N=C/C(Cc2ccccc2)NC(=O)C(Cc2c[nH]c3ccccc23)NC(=O)C(Cc2c[nH]c3ccccc23)NC(=O)Cc2cccc(Oc3ccccc3)c2)C(=O)N1` (stereo not drawn) [Compound 3]: the negative logarithm of the IC50 (pIC50) (in general, the IC50 on a negative log10 scale, so that one unit is a factor of ten) is 6.65. The compound `O=C1CN(/N=C/C(Cc2ccccc2)NC(=O)C(Cc2c[nH]c3ccccc23)NC(=O)C(Cc2c[nH]c3ccccc23)NC(=O)OCc2cccnc2)C(=O)N1` (stereo not drawn) [Compound 4] showed a negative logarithm of the IC50 (pIC50) of 7.21. Regarding `O=C1CN(/N=C/C(Cc2ccccc2)NC(=O)C(Cc2c[nH]c3ccccc23)NC(=O)C(Cc2c[nH]c3ccccc23)NC(=O)OCc2cnccn2)C(=O)N1` (stereo not drawn) [Compound 8], the pIC50 was 6.88. As to `O=C1CN(/N=C/C(Cc2ccccc2)NC(=O)C(Cc2c[nH]c3ccccc23)NC(=O)C(Cc2c[nH]c3ccccc23)NC(=O)OCc2ccccc2)C(=O)N1` (stereo not drawn) [Compound 1], the pIC50 was 6.80.

Staying with this assay, now noted: unit μm [sic].
With `O=C1CN(/N=C\C(Cc2ccccc2)NC(=O)C2C=Cc3cc(Cl)ccc3O2)C(=O)N1` (stereo not drawn) [Compound 11], the negative logarithm of the IC50 (pIC50) was 5.45. In turn, `O=C(/C=C/c1ccccc1)NC(/C=N\N1CC(=O)NC1=O)Cc1ccccc1` (stereo not drawn) [Compound 12] gave a negative-log IC50 (pIC50) of 5.66. For the compound `COc1cc(C(=O)NC(/C=N/N2CC(=O)NC2=O)Cc2ccccc2)nc(OC)n1` (stereo not drawn) [Compound 14], the pIC50 is 5.53.
